Results: ChEMBL document CHEMBL1201862, “PubChem BioAssay data set” (2004)
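Growth conditions: 96-well plates. Treatment: test compound, 48 hours, 5 concentrations. Analysis: linear interpolation between bracketing concentrations; unreached endpoints set to highest concentration. GI50: concentration for 50% inhibition of growth.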 Activity calls are given as the source filed them. Cut-off read from the data, not from the text of the source: active = GI50 up to about 1.1 µM and inactive = higher.

Key:
Assay in all cases: NCI tumour cell line growth inhibition, 48 h
786-0 = system: 786-0
ACHN = system: ACHN
BT-549 = system: BT-549
CAKI-1 = system: CAKI-1
EKVX = system: EKVX
HCC 2998 = system: HCC 2998
Hs-578T = system: Hs-578T
IGROV-1 = system: IGROV-1
LOX IMVI = system: LOX IMVI
M14 = system: M14
MCF7 = system: MCF7
MDA-N = system: MDA-N
PC-3 = system: PC-3
RPMI-8226 = system: RPMI-8226
SK-OV-3 = system: SK-OV-3
SN12C = system: SN12C
SNB-19 = system: SNB-19
SW-620 = system: SW-620
T47D = system: T47D

Row | Structure (SMILES) | GI50 (786-0) | GI50 (ACHN) | GI50 (BT-549) | GI50 (CAKI-1) | GI50 (EKVX) | GI50 (HCC 2998) | GI50 (Hs-578T) | GI50 (IGROV-1) | GI50 (LOX IMVI) | GI50 (M14) | GI50 (MCF7) | GI50 (MDA-N) | GI50 (PC-3) | GI50 (RPMI-8226) | GI50 (SK-OV-3) | GI50 (SN12C) | GI50 (SNB-19) | GI50 (SW-620) | GI50 (T47D)
1 | CSC1=NN(C(C)=O)C(C(OC(C)=O)C(OC(C)=O)C(OC(C)=O)C(COC(C)=O)OC(C)=O)S1 (centres undefined) | > 100 µM (inactive) | > 100 µM (inactive) | > 100 µM (inactive) | > 100 µM (inactive) | > 100 µM (inactive) | > 100 µM (inactive) | > 100 µM (inactive) | > 100 µM (inactive) | > 100 µM (inactive) | > 100 µM (inactive) | > 100 µM (inactive) | > 100 µM (inactive) | > 100 µM (inactive) | > 100 µM (inactive) | > 100 µM (inactive) | > 100 µM (inactive) | > 100 µM (inactive) | > 100 µM (inactive) | > 100 µM (inactive)
2 | CC(C)(C)c1cc(C(=O)/C=C/c2c(Cl)cccc2Cl)cc(C(C)(C)C)c1O | 13.1 µM (inactive) | 14.7 µM (inactive) | 17.4 µM (inactive) | 22.2 µM (inactive) | 21.9 µM (inactive) | 14.1 µM (inactive) | 25.2 µM (inactive) | 23.4 µM (inactive) | 13.6 µM (inactive) | 20.3 µM (inactive) | 8.34 µM (inactive) | 16.7 µM (inactive) | 11.4 µM (inactive) | 3.8 µM (inactive) | 53.5 µM (inactive) | 21 µM (inactive) | 11.9 µM (inactive) | 13.3 µM (inactive) | 4.33 µM (inactive)
3 | O=C(/C=C/c1ccccc1O)CC(=O)/C=C/c1ccccc1O | 4.21 µM (inactive) | 5.92 µM (inactive) | 5.62 µM (inactive) | 17.9 µM (inactive) | 13.3 µM (inactive) | 10.5 µM (inactive) | 8.17 µM (inactive) | 5.73 µM (inactive) | 1.32 µM (inactive) | 12.8 µM (inactive) | 4.14 µM (inactive) | 2.97 µM (inactive) | 5.28 µM (inactive) | 2.93 µM (inactive) | > 10 µM (inactive) | 5.38 µM (inactive) | 9.84 µM (inactive) | 4.51 µM (inactive) | 5.45 µM (inactive)
4 | CCN(CC)Cc1ccc(C(=S)Nc2ccc(Cl)cc2)s1 | 13.1 µM (inactive) | 14.2 µM (inactive) | 5.18 µM (inactive) | 12.7 µM (inactive) | 4.06 µM (inactive) | 12.6 µM (inactive) | 10.4 µM (inactive) | 11.4 µM (inactive) | 4.82 µM (inactive) | 3.64 µM (inactive) | 11 µM (inactive) | 10.7 µM (inactive) | 13.2 µM (inactive) | 6.31 µM (inactive) | 15.2 µM (inactive) | – | 16.5 µM (inactive) | 12.2 µM (inactive) | 11.2 µM (inactive)
5 | O=c1cnn(C/C=C/CO)c(=O)[nH]1 | – | > 100 µM (inactive) | > 100 µM (inactive) | > 100 µM (inactive) | > 100 µM (inactive) | > 100 µM (inactive) | > 100 µM (inactive) | > 100 µM (inactive) | 28.3 µM (inactive) | > 100 µM (inactive) | > 100 µM (inactive) | > 100 µM (inactive) | > 100 µM (inactive) | > 100 µM (inactive) | – | > 100 µM (inactive) | > 100 µM (inactive) | > 100 µM (inactive) | > 100 µM (inactive)
6 | CCOP(=O)(O)C(Nc1ccc(/N=N/c2ccccc2)cc1)c1ccc(C(Nc2ccc(/N=N/c3ccccc3)cc2)P(=O)(O)OCC)cc1 (centres undefined) | 26.8 µM (inactive) | > 100 µM (inactive) | 18.1 µM (inactive) | 44.6 µM (inactive) | 18.7 µM (inactive) | 17.9 µM (inactive) | 18.6 µM (inactive) | 19.7 µM (inactive) | 15.6 µM (inactive) | 15.7 µM (inactive) | 48.3 µM (inactive) | 19.4 µM (inactive) | 17.1 µM (inactive) | 23.7 µM (inactive) | 18.7 µM (inactive) | 19.2 µM (inactive) | 21.5 µM (inactive) | 16.7 µM (inactive) | 15.3 µM (inactive)
7 | OC1(c2ccc(Cl)cc2)c2c(c3ccccc3c3ccccc23)C2=NCCN21 (centres undefined) | 4.02 µM (inactive) | 14.5 µM (inactive) | 16.5 µM (inactive) | 19.4 µM (inactive) | 13.6 µM (inactive) | 1.98 µM (inactive) | 4.58 µM (inactive) | 3.96 µM (inactive) | 24.1 µM (inactive) | 11.4 µM (inactive) | 14.6 µM (inactive) | 19.8 µM (inactive) | 14.6 µM (inactive) | 34.4 µM (inactive) | 16.4 µM (inactive) | 16.3 µM (inactive) | 13.6 µM (inactive) | 12.6 µM (inactive) | 15.4 µM (inactive)
8 | C[C@@H]1C[C@H]2CC[C@H](O2)[C@H](C)C(=O)O[C@@H](C)C[C@@H]2CC[C@@H](O2)[C@@H](C)C(=O)O[C@H](C)C[C@H]2CC[C@H](O2)[C@H](C)C(=O)O[C@@H](C)C[C@@H]2CC[C@@H](O2)[C@@H](C)C(=O)O1 | 0.445 µM (active) | 0.212 µM (active) | 0.396 µM (active) | 0.826 µM (active) | 0.283 µM (active) | 1.1 µM (active) | 0.489 µM (active) | 0.34 µM (active) | 0.305 µM (active) | 0.434 µM (active) | 0.326 µM (active) | 0.404 µM (active) | 0.218 µM (active) | 0.0769 µM (active) | 0.2 µM (active) | 0.366 µM (active) | 0.366 µM (active) | 0.349 µM (active) | 0.189 µM (active)
9 | CC[C@@]1(O)C(=O)OCc2c1cc1n(c2=O)Cc2c-1nc1ccccc1c2CC[Si](C)(C)C [COSITECAN] | < 0.01 µM (active) | < 0.01 µM (active) | 0.023 µM (active) | < 0.01 µM (active) | 0.0671 µM (active) | < 0.01 µM (active) | 7.73 µM (inactive) | 0.0149 µM (active) | < 0.01 µM (active) | < 0.01 µM (active) | < 0.01 µM (active) | < 0.01 µM (active) | < 0.0389 µM (active) | < 0.01 µM (active) | < 0.01 µM (active) | < 0.01 µM (active) | < 0.01 µM (active) | 0.0101 µM (active) | < 0.01 µM (active)
10 | O=c1[nH]cnc2c1sc1nc3ccccc3n12 | 67.5 µM (inactive) | > 100 µM (inactive) | > 100 µM (inactive) | > 100 µM (inactive) | > 100 µM (inactive) | 73.3 µM (inactive) | 51.6 µM (inactive) | 63.8 µM (inactive) | 27.8 µM (inactive) | > 100 µM (inactive) | 76.4 µM (inactive) | > 100 µM (inactive) | 88.5 µM (inactive) | > 100 µM (inactive) | 58.1 µM (inactive) | – | > 100 µM (inactive) | > 100 µM (inactive) | > 100 µM (inactive)
11 | O=[N+]([O-])c1ccc(C(=S)Nc2ccccc2)o1 | 2.07 µM (inactive) | 2.36 µM (inactive) | 4.76 µM (inactive) | 4.11 µM (inactive) | 5.11 µM (inactive) | 1.69 µM (inactive) | 3.71 µM (inactive) | 6.1 µM (inactive) | 2.29 µM (inactive) | 4.94 µM (inactive) | 2.05 µM (inactive) | 2.96 µM (inactive) | 1.79 µM (inactive) | 1.53 µM (inactive) | 11.4 µM (inactive) | 2.42 µM (inactive) | 4.62 µM (inactive) | 1.27 µM (inactive) | 4.33 µM (inactive)
12 | COc1ccc2c(c1OC)C(=O)N1C2=Cc2c(cc3c(c2OC)OCO3)CC1N(C)C (centres undefined) | > 100 µM (inactive) | 29.9 µM (inactive) | 33.3 µM (inactive) | > 100 µM (inactive) | 65.8 µM (inactive) | > 100 µM (inactive) | 34.8 µM (inactive) | > 100 µM (inactive) | – | 66.7 µM (inactive) | 58.7 µM (inactive) | 95.3 µM (inactive) | 30.9 µM (inactive) | 22.8 µM (inactive) | 87.7 µM (inactive) | 35.9 µM (inactive) | > 100 µM (inactive) | 62.1 µM (inactive) | 24.4 µM (inactive)
13 | Cc1n[nH]c(=O)n1-c1cccnc1 | > 100 µM (inactive) | > 100 µM (inactive) | > 100 µM (inactive) | > 100 µM (inactive) | > 100 µM (inactive) | > 100 µM (inactive) | > 100 µM (inactive) | > 100 µM (inactive) | > 100 µM (inactive) | > 100 µM (inactive) | > 100 µM (inactive) | > 100 µM (inactive) | > 100 µM (inactive) | > 100 µM (inactive) | – | > 100 µM (inactive) | > 100 µM (inactive) | > 100 µM (inactive) | > 100 µM (inactive)
14 | CC(NC(=O)C(NC(=O)C(NC(=O)C(F)(F)F)C(C)C)C(C)C)C(=O)Oc1c(Cl)c(Cl)c(Cl)c(Cl)c1Cl (centres undefined) | – | > 100 µM (inactive) | > 100 µM (inactive) | > 100 µM (inactive) | > 100 µM (inactive) | > 100 µM (inactive) | > 100 µM (inactive) | > 100 µM (inactive) | > 100 µM (inactive) | > 100 µM (inactive) | > 100 µM (inactive) | > 100 µM (inactive) | > 100 µM (inactive) | > 100 µM (inactive) | > 100 µM (inactive) | > 100 µM (inactive) | > 100 µM (inactive) | > 100 µM (inactive) | 83.4 µM (inactive)
